Experimental findings from article PMC4821708 (Biochimica et biophysica acta, 2016) are described below.

SMILES strings stand for the structures.

For data set [1], the target named is T1, Cytoglobin (Cygb) (Homo sapiens, UniProt Q8WWM9). In kind it is biochemical. The note with it: cygb:lipid liposomes.
Data set [2] concerns the target Cytoglobin (Cygb Δ1-15Δ174-190) (Homo sapiens, UniProt Q8WWM9, Δ1-15Δ174-190). In words: differential absorbance spectroscopy titration, […] fit. In kind it is binding.
In data set [3] the target is Cytoglobin (Cygb), wild type (Homo sapiens, UniProt Q8WWM9). Described as above. In kind it is binding.
Cytoglobin (Cygb), wild type, sequence (Q8WWM9 whole entry): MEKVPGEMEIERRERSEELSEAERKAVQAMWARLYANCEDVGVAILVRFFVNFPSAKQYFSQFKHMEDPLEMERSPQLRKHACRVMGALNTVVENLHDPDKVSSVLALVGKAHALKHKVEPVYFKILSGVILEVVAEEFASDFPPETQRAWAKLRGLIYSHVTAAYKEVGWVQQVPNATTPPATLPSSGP
In data set [4] the target is T1, Cytoglobin (Cygb). Put plainly: LC-MS/MS of lipid oxidation products by Cygb/H2O2. It counts as biochemical.

T1 sequence (Q8WWM9 whole entry): as above
Cytoglobin (Cygb Δ1-15Δ174-190), sequence (Q8WWM9 16-173, stated change not applied): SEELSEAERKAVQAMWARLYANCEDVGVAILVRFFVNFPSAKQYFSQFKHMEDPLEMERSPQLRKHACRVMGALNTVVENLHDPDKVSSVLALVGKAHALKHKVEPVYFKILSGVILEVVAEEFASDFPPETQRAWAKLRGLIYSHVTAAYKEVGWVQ

`CCCCCCCC/C=C\CCCCCCCC(=O)OC[C@H](COP(=O)(O)O)OC(=O)CCCCCCC/C=C\CCCCCCCC` [DOPA, 1,2-dioleoyl-sn-glycero-3-phosphate]: the “activation of peroxidase activity, Amplex Red oxidation, 1:25 Cygb:lipid liposom” value on Cytoglobin (Cygb) [1] is reported as 1.6 fold increase in rate.
In the case of `CCCCCCCC/C=C\CCCCCCCC(=O)O` [OA, oleic acid], the Kd in data set [2] turned out to be 3 ± 1.8 µM; in data set [3], 2.3 ± 1 µM.
Regarding `CCCCC/C=C\C/C=C\C/C=C\C/C=C\CCCC(=O)O[C@H](COC(=O)CCCCCCCCCCCCCCCCC)COP(=O)(O)O` [SAPA, 1-stearoyl-2-arachidonoyl-sn-glycero-3-phosphate], at Cytoglobin (Cygb) [4], the “LC-MS/MS of lipid oxidation products by Cygb/H2O2” value is 5.6 ± 0.1 picomoles of oxidation products.
